According to patent publication US6086915A, “Compositions and methods of adjusting steroid hormone metabolism through phytochemicals” (priority 1998, dated 2000):
In brackets after ≈: the same amount, converted by molar mass. Entries after “also recorded” stand apart in the source; their conditions may differ. Where two headings read alike, the source gives them in different places.

Legend:
[1] = an hour after oral dose of I3C; cited from earlier work
p-glycoprotein = conditions: cited from earlier work
[2] = DIM stability in simulated gastric environment and shelf-life conditions; format: physicochemical
From the text: Therefore the need exists for a bioavailable formulation of DIM as well as related dimers and trimers, since hydrophobic substances like DIM are poorly absorbed.

[3] = system: total cytochrome (CYP) enzymes; test: Example 9: total CYP in liver microsomes of rats fed crystalline or processed DIM (Western Blots); format: in vivo, Sprague Dawley rats; conditions: males; 100 mg per kg gavage, 3 consecutive days
cultured liver cells = conditions: added directly to cultured liver cells; cited from earlier work
CYP 1A1/1A2 and 1B1 = test: Example 10: immunoblot of CYP enzyme induction in uterine and hepatic microsomes after feeding; format: in vivo, Sprague-Dawley female rats
Experimental: CYP enzyme induction was again used as a bio-marker of bioavailability.
The study compared the enzyme induction resulting from exposure of female rats to crystalline DIM, I3C and processed DIM at relevant doses in the feed. Levels of CYP 1A1/1A2 and 1B1 were measured in uterine and hepatic microsomes as a surrogate end point of uptake and bioavailability.
A total of 30 Sprague-Dawley female rats weighing approximately 200 gms were treated as follows:
1. 5-7 day acclimatization in group cages, feeding on AIN76A minimally inducing diet.
2. 3 days feeding on same feed mixed with 7 different combinations of dietary indoles.
3. Sacrifice of animals on about day 10. Harvesting of livers and uteri following perfusion of abdominal organs to remove blood.
4. Processing of organs to obtain CYP enzyme rich microsomal fraction.
5. Immunoblot determination of levels of specific CYP enzymes by standard means using existing CYP antibodies.
Microsomes from the following groups were assayed:
Organ weight was obtained at necropsy. Specific CYP enzyme levels were compared based on standardized densitometry units. […] Results expressed as densitometry units indicating uptake of indole and degree of enzyme induction are listed according to the above groups: […]

[4] = solubility in water and in oil; format: physicochemical
[5] = system: CYP enzymes in colonic epithelium; conditions: in diet, mixed with feed; cited from earlier work
[6] = system: hepatic microsomal metabolism of estrogen; conditions: cited from earlier work
Human Cancer Cells = conditions: cell culture; cited from earlier work
hepatic enzyme = conditions: one mg/kg of DIM in corn oil, fed; cited from earlier work
CYP 1A1/1A2 [7] = conditions: mice fed I3C; cited from earlier work
[8] = system: 2-hydroxylation of estradiol; conditions: cited from earlier work; for shift of estrogen metabolism: I3C, oral
[9] = system: 2-hydroxylation of estradiol; conditions: animals; cited from earlier work
[10] = cited from earlier work
CYP 1A1/1A2 [11] = conditions: rats fed I3C; cited from earlier work
CYP = conditions: cited from earlier work
[12] = oil, organic solvent or mixture, read-out: solubility in oil
[13] = water, read-out: solubility in water

c1ccc2c(Cc3[nH]c4ccccc4c3Cc3c[nH]c4ccccc34)c[nH]c2c1 [2,3-bis[3-indolylmethyl]indole]
detection in gastric contents and stomach tissue [1]: detected in gastric contents and stomach tissue

c1ccc2c(Cc3c[nH]c4ccccc34)c[nH]c2c1 [DIM, 3,3'-diindolylmethane]
p-glycoprotein function (p-glycoprotein; cell culture and in vivo): Inhibition of the function of the p-glycoprotein
effectiveness of chemotherapy drugs in multiply resistant cancer cells (p-glycoprotein): increase the effectiveness of chemotherapy drugs in multiply resistant cancer cells; also recorded: increased effectiveness of chemotherapeutic compounds in multiply resistant cancer cells
interaction with p-glycoprotein membrane structure (p-glycoprotein; molecular probe): direct interaction of DIM with the p-glycoprotein membrane structure
shelf stability ([2]; accelerated shelf-life conditions): shelf stable
indolocarbazole generation ([2]; digestion, gastric acid, or accelerated shelf-life conditions): No indolocarbazole is generated
stability during passage through a simulated gastric environment ([2]; simulated gastric environment): entirely stable
Total CYP (nmol/mg protein), Percent of Control [3]: 140%
CYP enzyme induction (cultured liver cells): powerful CYP enzyme-inducer
CYP enzyme induction, Densitometry Units (CYP 1A1/1A2 and 1B1; DIM high 10 mg/kg/day, crystalline, in feed 3 days): 0 Densitometry Units
CYP enzyme induction, Densitometry Units (CYP 1A1/1A2 and 1B1; DIM low 2 mg/kg/day, crystalline, in feed 3 days): 0 Densitometry Units
solubility [4, 12]: 100 µg/mL (≈ 406 µM)
solubility [4, 13]: 2.5 µg/mL (≈ 10.1 µM)
CYP enzyme induction in colonic epithelium [5]: failed to induce CYP enzymes in colonic epithelium
detection in gastric contents and stomach tissue [1]: detected in gastric contents and stomach tissue
dose below which activity is lost ([6]; DIM in the diet / in sesame oil): below 5 mg per kg
potency in influencing estrogen metabolism, DIM over I3C ([6]; fed to rats): increased potency of DIM over I3C
lowest dose with enzyme inductive effects ([6]; injected intraperitoneally): 0.3 mg per kg
apoptosis (Human Cancer Cells): able to support the cancer preventive behavior of apoptosis
hepatic enzyme induction (hepatic enzyme): no hepatic enzyme induction

OCc1c[nH]c2ccccc12 [I3C, indole-3-carbinol]
hepatic and intestinal levels of CYP 1A1/1A2 enzyme (CYP 1A1/1A2 [7]): increased
minimum dose ([8]; I3C dietary supplement): 300 mg per person per day
shift of estrogen metabolism [8]: beneficially shift estrogen metabolism to favor 20 H estrone
shift of estrogen metabolism ([8]; listed as indole-3-carbinol): successful in shifting estrogen metabolism to favor 20 H estrone
2-hydroxylation of estradiol ([8]; humans): increase the 2-hydroxylation of estradiol
2-hydroxylation of estradiol [9]: increase the 2-hydroxylation of estradiol
CYP enzyme induction, Densitometry Units (CYP 1A1/1A2 and 1B1; I3C high 25 mg/kg/day, in feed 3 days): 5.1 Densitometry Units
CYP enzyme induction, Densitometry Units (CYP 1A1/1A2 and 1B1; I3C low 5 mg/kg/day, in feed 3 days): 0 Densitometry Units
loss of the original I3C ([10]; aging conditions simulating a one month period, 43800 min): approximately 50%
stability ([10]; heat, light, moisture, or acidic environments): unstable and subject to spontaneous breakdown
CYP enzyme induction in colonic epithelium [5]: powerful inductive activity
hepatic and intestinal levels of CYP 1A1/1A2 enzyme (CYP 1A1/1A2 [11]): increased

Clc1cc2c(cc1Cl)Oc1cc(Cl)c(Cl)cc1O2 [TCDD, 2,3,7,8-Tetrachlorodibenzo-P-Dioxin]
CYP enzyme induction, Densitometry Units (CYP 1A1/1A2 and 1B1; positive control, by gavage): 251.7 Densitometry Units

COc1ccc(-c2cc(=O)c3c(OC)c(OC)c(OC)c(OC)c3o2)cc1 [Tangeretin, 5,6,7,8,4'-pentamethoxyflavone]
CYP induction (CYP; dietary intake): associated with CYP induction

O=c1cc(-c2ccccc2)oc2cc(O)cc(O)c12 [chrysin, 5,7-Dihydroxyflavone, reference compound]
CYP-related effects in rat livers (CYP; two weeks oral intake at 300 mg/kg of body weight): no CYP-related effects were noted in rat livers
solubility [4, 12]: 50 µg/mL (≈ 197 µM)
solubility [4, 13]: 0.7 µg/mL (≈ 2.75 µM)
